# Results from the supplement of paper PMC4862054.
# Key:
# Settings in all cases: incubation time: 72 h
# CAL-85-1 [1] = experiment: normalised viability (% of control), CellTiter-Blue; higher = more viable cells (about 100 = DMSO control)
# Procedure: (§1)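 DSRT, CellTiter-Blue viability, 72 h incubation. Signal is normalised to DMSO and benzethonium chloride controls. Value is the normalised response at dose 6.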
# CAL-148 [2] = experiment: as above
# Procedure: as §1
# HDQ-P1 [3] = experiment: as above
# Procedure: as §1
# MDA-MB-453 [4] = experiment: as above
# Procedure: as §1
# CAL-51 [5] = experiment: as above
# Procedure: as §1
# DU-4475 [6] = experiment: as above
# Procedure: as §1
# CAL-85-1 [7] = experiment: as above; remark: listed apart in the source
# Procedure: (§2)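 DSRT, CellTiter-Blue viability, 72 h incubation. Signal is normalised to DMSO and benzethonium chloride controls. Value is the normalised response at dose 7.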
# CAL-148 [8] = experiment: as above; remark: listed apart in the source
# Procedure: as §2
# HDQ-P1 [9] = experiment: as above; remark: listed apart in the source
# Procedure: as §2
# MDA-MB-453 [10] = experiment: as above; remark: listed apart in the source
# Procedure: as §2
# CAL-51 [11] = experiment: as above; remark: listed apart in the source
# Procedure: as §2
# DU-4475 [12] = experiment: as above; remark: listed apart in the source
# Procedure: as §2
# HCC1599 = experiment: normalised response (% of control), CellTiter-Glo; higher = more viable cells (100 = DMSO, 0 = benzethonium chloride kill control)
# Method in brief: (§3)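 Each entry is the normalised signal at a single concentration within a series. The series comprised 5 concentrations in 10-fold steps over a compound-specific 10,000-fold range, placed in 384-well plates into which breast cancer cell lines were seeded as 20 µl suspension and incubated 72 h. CellTox Green (485/520 nm) fluorescence and then CellTiter-Glo luminescence were read, with signals normalised per plate to 0.1 % DMSO (100) and a positive kill control (0).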
# CAL-85-1 [13] = experiment: as above
# Method in brief: as §3
# CAL-148 [14] = experiment: as above
# Method in brief: as §3
# HCC1937 = experiment: as above
# Method in brief: as §3
# MDA-MB-468 = experiment: as above
# Method in brief: as §3
# MFM-223 = experiment: as above
# Method in brief: as §3
# MDA-MB-436 = experiment: as above
# Method in brief: as §3
# MCF-10A = experiment: as above
# Method in brief: as §3
# HDQ-P1 [15] = experiment: as above
# Method in brief: as §3
# SK-BR-3 = experiment: as above
# Method in brief: as §3
# MDA-MB-453 [16] = experiment: as above
# Method in brief: as §3
# Hs578T = experiment: as above
# Method in brief: as §3
# BT-549 = experiment: as above
# Method in brief: as §3
# CAL-120 = experiment: as above
# Method in brief: as §3
# MDA-MB-231 = experiment: as above
# Method in brief: as §3
# CAL-51 [17] = experiment: as above
# Method in brief: as §3
# BT-474 = experiment: as above
# Method in brief: as §3
# HCC1143 = experiment: as above
# Method in brief: as §3
# DU-4475 [18] = experiment: as above
# Method in brief: as §3
SMILES,normalised viability (CAL-85-1 [1]) [%],normalised viability (CAL-148 [2]) [%],normalised viability (HDQ-P1 [3]) [%],normalised viability (MDA-MB-453 [4]) [%],normalised viability (CAL-51 [5]) [%],normalised viability (DU-4475 [6]) [%],normalised viability (CAL-85-1 [7]) [%],normalised viability (CAL-148 [8]) [%],normalised viability (HDQ-P1 [9]) [%],normalised viability (MDA-MB-453 [10]) [%],normalised viability (CAL-51 [11]) [%],normalised viability (DU-4475 [12]) [%],further results
CS(=O)(=O)OCCCCOS(C)(=O)=O [Busulfan] (3000 nM),106,114,83,99.9,92.8,76,,,,,,,
c1ccc(C2CN3CCSC3=N2)cc1 (stereo not given) [Tetramisole] (1000 nM),,,,,,,98.7,131,109,108,90.2,74,
COC(=O)C[C@](O)(CCCC(C)(C)O)C(=O)O[C@@H]1C(OC)=C[C@]23CCCN2CCc2cc4c(cc2[C@H]13)OCO4 [Omacetaxine mepesuccinate] (1000 nM),,,,,,,3.04,12.4,13.1,15.1,4.98,9.53,
CCCC(CCC)C(=O)O [Valproic acid] (1000 nM),,,,,,,90.6,88.8,112,116,89.1,94.8,normalised response (HCC1599): 31.2%; normalised response (CAL-85-1 [13]): 93.9%; normalised response (CAL-148 [14]): 96.2%; normalised response (HCC1937): 99.5%; normalised response (MDA-MB-468): 93.8%; normalised response (MFM-223): 94.5%; normalised response (MDA-MB-436): 95.6%; normalised response (MCF-10A): 98.7%; normalised response (HDQ-P1 [15]): 103%; normalised response (SK-BR-3): 92.3%; normalised response (MDA-MB-453 [16]): 111%; normalised response (Hs578T): 103%; normalised response (BT-549): 99.8%; normalised response (CAL-120): 99.9%; normalised response (MDA-MB-231): 101%; normalised response (CAL-51 [17]): 70.3%; normalised response (BT-474): 103%; normalised response (HCC1143): 103%; normalised response (DU-4475 [18]): 94.9%
CC(=O)O[C@H]1C(=O)[C@@]2(C)[C@H]([C@H](OC(=O)c3ccccc3)[C@]3(O)C[C@H](OC(=O)[C@H](O)[C@@H](NC(=O)c4ccccc4)c4ccccc4)C(C)=C1C3(C)C)[C@]1(OC(C)=O)CO[C@@H]1C[C@@H]2O [Paclitaxel] (30 nM),32.6,20.8,33.7,26.1,38.8,39.6,,,,,,,
COc1cccc2c1C(=O)c1c(O)c3c(c(O)c1C2=O)C[C@@](O)(C(C)=O)C[C@@H]3O[C@H]1C[C@H](N)[C@H](O)[C@H](C)O1 [Daunorubicin] (30 nM),94.6,59.5,74.9,93.7,54.5,64.7,,,,,,,
CC(C)C[C@H](NC(=O)[C@H](Cc1ccccc1)NC(=O)c1cnccn1)B(O)O [Bortezomib] (30 nM),7.63,41,2.53,24,67.6,9.69,,,,,,,
O=P(O)(NCCCl)NCCCl [Ifosfamide mustard] (300 nM),98,110,54,114,100,92.7,,,,,,,
C[C@@]1(C(=O)Nc2ccc(F)nc2)CCCN1c1nc(Nc2cc(C3CC3)n[nH]2)c2cccn2n1 (300 nM),65.7,95.7,50.3,84.6,88.3,77.7,,,,,,,
COc1cc(Nc2ncc(F)c(Nc3ccc4c(n3)NC(=O)C(C)(C)O4)n2)cc(OC)c1OC [R406] (1000 nM),,,,,,,84.7,97.2,103,96.4,112,105,
COc1ncc(-c2ccc3nccc(-c4ccnnc4)c3c2)cc1NS(=O)(=O)c1ccc(F)cc1F (30 nM),50.4,43.7,30.4,12.1,33.1,63.6,,,,,,,
